How the values were obtained:
[1] = system: orthotopic PDA tumors from KPC mice; details: for progression of orthotopic PDA (tumor weight): wild-type mice, oral antifungal vs vehicle, killed three weeks after tumor implantation (FIG. 3B, 7A)
[2] = system: orthotopic tumors from KPC mice; experiment: Orthotopic KPC tumors in MBL-null mice; assay type: in vivo, mouse; details: amphotericin B vs vehicle, three weeks (FIG. 8B)
Source text: (§1) Littermates were used as controls.

[3] = system: oncogenic progression in KC mice (p48cre;LSL-KrasG12D); experiment: KC mouse model of slowly progressive PDA, mycobiome ablation; assay type: in vivo; details: oral amphotericin B vs vehicle, killed at three months old (FIG. 3A)
Source text: as §1

[4] = system: KPC tumor cells; experiment: XTT proliferation assay of KPC tumor cells; assay type: cell-based; details: recombinant mouse C3a 5 nM vs vehicle, serial time points (FIG. 8F)
Source text: as §1

[5] = system: orthotopic tumors from KPC mice; experiment: Intratumoral injection of recombinant C3a into orthotopic KPC tumors; assay type: in vivo, mouse; details: single intratumoral injection 40 μg/kg on day 14, tumors collected day 21 (FIG. 4D)
Source text: as §1

| Molecule | effect on gemcitabine chemotherapy (tumor weight) ([1]; wild-type mice with orthotopic PDA tumors, amphotericin B combined with gemcitabine, three weeks of treatment (FIG. 3C)) | progression of orthotopic PDA (tumor weight) [1] | protection against tumor growth in MBL-null mice (tumor weight) [2] | oncogenic progression (pancreatic weight, acinar area, ADM/PanIN lesions, fibrosis) [3] | proliferation of KPC cells in vitro [4] | growth of KPC tumors in vivo (change in tumor volume) [5] |
| --- | --- | --- | --- | --- | --- | --- |
| C[C@@H]1[C@H](O)[C@@H](C)/C=C/C=C/C=C/C=C/C=C/C=C/C=C/[C@H](O[C@@H]2O[C@H](C)[C@@H](O)[C@H](N)[C@@H]2O)C[C@@H]2O[C@](O)(C[C@@H](O)C[C@@H](O)[C@H](O)CC[C@@H](O)C[C@@H](O)CC(=O)O[C@H]1C)C[C@H](O)[C@H]2C(=O)O [amphotericin B] | potentiated the effect of chemotherapy based on gemcitabine | protective against progression | did not provide protection against tumor growth | protected the mice against oncogenic progression | – | – |
| OC(Cn1cncn1)(Cn1cncn1)c1ccc(F)cc1F [fluconazole] | – | protective against progression | – | – | – | – |
| recombinant C3a: recombinant mouse complement fragment C3a (R&D) | – | – | – | – | accelerated the proliferation of KPC cells | accelerated |

From patent US12685743B2, “Methods and compositions for treating and diagnosing pancreatic cancers” (New York University, priority 2019, dated 2026)
